Biological target: T1, human ΔF508-CFTR (Homo sapiens, UniProt P13569, DEL508-508)
T1 construct: expressed in transfected cells
Assay: CFTR-YFP High Throughput Assay (HTS YFP flux assay, corrector / potentiator protocols)
Type: cell-based
Conditions: FRT cells stably expressing human ΔF508-CFTR and YFP-H148Q/I152L; for Emax: normalized to positive control, read-out: Emax (% Efficacy, EMax normalized to the positive control)
Description: Assays for Detecting and Measuring the Effect of Compounds on dF508-CFTR Channels CFRT-YFP High Throughput Assay: Corrector Assay:
The following protocol is designed to selectively screen small molecule compounds for F508del CFTR corrector activities in the HTS YFP flux assay. In this protocol, the cells are incubated with testing compounds for 24 hours, washed with PBS, stimulated with forskolin and a standard potentiator, and read on a 384-well HTS plate reader, such as the Hamamatsu FDDD-6000.
(§1) YFP fluorescence intensity is acquired at high speed before and after iodide buffer is injected to the assay cells. Iodide enters the cells via active CFTR channels in the plasma membrane, and quenches the YFP fluorescence. The rate of fluorescence quenching is proportionally related to the total CFTR activities in the cell membrane. dF508-CFTR corrector accelerates YFP quenching by increasing the number of CFTR molecules in the testing cell plasma membrane.
This method was initially developed for bench top plate readers (Galietta, 2001), and was adapted to the HTS format (Sui, 2010).
Fisher Rat Thyroid (FRT) cells stably expressing both human ΔF508-CFTR and a halide-sensitive yellow fluorescent protein (YFP-H148Q/I152L 25, 22) (Galietta, 2001) were cultured on plastic surface in Coon's modified Ham's F12 medium supplemented with FBS 10%, L-glutamine 2 mM, penicillin 100 U/mL, and streptomycin 100 μg/mL. G418 (0.75-1.0 mg/mL) and zeocin (3.2 μg/mL) were used for selection of FRT cells expressing ΔF508-CFTR and YFP. For primary screening, FRT cells were plated into 384-well black wall, transparent bottom microtiter plates (Costar; Corning Inc.) at a cell density of 20, 000-40, 000 per well. Test compound was applied to the cells at varying concentrations ranging from 2 nM-[…] in either a 2-fold or 3-fold dilution series. Cells were incubated in a cell culture incubator at 37° C. with 5% CO2 for 24-26 h. Assay plates were washed with DPBS media (Thermo, cat#SH30028.02) to remove unbound cells and compound. Stimulation media (25 μL) containing 20 μM Forskolin & 30 μM P3 [6-(Ethyl-phenyl-sulfonyl)-4-oxo-1, 4-dihydro-quinoline-3-carboxylic acid 2-methoxy-benzylamide] in Hams F-12 coon's modified media was added to the plate wells and incubated at room temperature for 60-120 min. 25 μL of HEPES-PBS-I buffer (10 mM HEPES, 1 mM MgCl2, 3 mM KCl, 1 mM CaCl2, 150 mM NaI) was then added and fluorescence quench curves (Excitation 500 nm/Emission 540 nm; exposure 136 ms) were immediately recorded on an FDSS-6000 plate reader (Hamamatsu). Quench rates were derived from least squares fitting of the data (Sui, 2010).
The following protocol is designed to selectively screen small molecule compounds for F508del CFTR potentiator activities in the HTS YFP flux assay. In this protocol, the cells are incubated at 27° C. for 24 hours with homogeneously boosted dF508-CFTR expression in the cell membrane by the low temperature, washed with PBS, stimulated with forskolin, and read on a 384-well HTS plate reader, such as the Hamamatsu […].
as §1, with “dF508del-CFTR potentiators accelerate” for “dF508-CFTR corrector accelerates”, “increasing” for “increasing the number of”, “activities” for “molecules”
Fisher Rat Thyroid (FRT) cells stably expressing both human ΔF508-CFTR and a halide-sensitive yellow fluorescent protein (YFP-H148Q/I152L 25, 22) (Galietta, 2001) were cultured on plastic surface in Coon's modified Ham's F12 medium supplemented with FBS 10%, L-glutamine 2 mM, penicillin 100 U/mL, and streptomycin 100 μg/mL. G418 (0.75-1.0 mg/mL) and zeocin (3.2 μg/mL) were used for selection of FRT cells expressing ΔF508-CFTR and YFP. […]

T1 sequence (P13569 with tags, fused parts or gaps DEL508-508): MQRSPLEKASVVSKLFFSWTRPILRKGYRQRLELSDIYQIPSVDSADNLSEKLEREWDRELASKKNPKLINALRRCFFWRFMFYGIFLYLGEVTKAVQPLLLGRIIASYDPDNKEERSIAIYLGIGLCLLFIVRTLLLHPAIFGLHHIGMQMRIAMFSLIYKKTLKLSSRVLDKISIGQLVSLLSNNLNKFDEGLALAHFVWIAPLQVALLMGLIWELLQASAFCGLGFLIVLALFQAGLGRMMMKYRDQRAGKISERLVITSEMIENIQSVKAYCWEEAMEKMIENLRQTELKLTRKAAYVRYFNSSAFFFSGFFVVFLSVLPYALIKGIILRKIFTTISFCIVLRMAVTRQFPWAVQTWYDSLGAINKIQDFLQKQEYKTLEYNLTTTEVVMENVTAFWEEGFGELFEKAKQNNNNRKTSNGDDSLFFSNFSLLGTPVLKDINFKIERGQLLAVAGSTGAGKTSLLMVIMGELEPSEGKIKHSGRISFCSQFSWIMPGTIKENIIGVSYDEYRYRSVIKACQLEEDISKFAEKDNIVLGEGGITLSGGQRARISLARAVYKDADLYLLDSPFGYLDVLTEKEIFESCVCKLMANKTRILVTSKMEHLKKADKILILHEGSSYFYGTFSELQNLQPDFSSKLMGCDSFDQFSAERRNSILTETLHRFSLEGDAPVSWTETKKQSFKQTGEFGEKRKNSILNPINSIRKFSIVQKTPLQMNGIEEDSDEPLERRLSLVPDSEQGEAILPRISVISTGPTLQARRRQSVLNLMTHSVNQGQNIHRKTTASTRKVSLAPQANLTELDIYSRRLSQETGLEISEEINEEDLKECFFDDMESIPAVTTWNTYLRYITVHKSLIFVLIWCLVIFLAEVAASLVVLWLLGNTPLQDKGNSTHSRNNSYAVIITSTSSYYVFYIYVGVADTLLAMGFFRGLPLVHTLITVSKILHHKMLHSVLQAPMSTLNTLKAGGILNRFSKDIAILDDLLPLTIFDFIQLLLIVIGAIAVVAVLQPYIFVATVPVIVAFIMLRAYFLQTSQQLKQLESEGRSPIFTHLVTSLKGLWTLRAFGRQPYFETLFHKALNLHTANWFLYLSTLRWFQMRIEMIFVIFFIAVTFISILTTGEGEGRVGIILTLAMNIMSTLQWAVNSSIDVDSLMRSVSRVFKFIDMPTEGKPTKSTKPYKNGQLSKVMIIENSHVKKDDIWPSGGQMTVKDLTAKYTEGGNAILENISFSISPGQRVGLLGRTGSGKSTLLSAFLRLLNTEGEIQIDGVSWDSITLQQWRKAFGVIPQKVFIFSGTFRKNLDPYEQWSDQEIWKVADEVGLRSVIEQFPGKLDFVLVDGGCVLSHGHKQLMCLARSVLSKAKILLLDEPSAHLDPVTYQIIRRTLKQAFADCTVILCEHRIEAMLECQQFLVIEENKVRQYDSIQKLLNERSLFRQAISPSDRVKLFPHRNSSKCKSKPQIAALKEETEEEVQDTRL

For `CCN(CC)S(=O)(=O)c1ccc2nnc(NCC(C)(C)OC)n2c1` [Example 31], the EC50 was 1000 to 10000 nM and the Emax was 40 to 80%.
Molecule `O=S(=O)(c1ccccc1)c1ccc2nc(NCc3ccc(-c4ccccn4)cc3)nn2c1` [Example 94, 6-(phenylsulfonyl)-N-(4-(pyridin-2-yl)benzyl)-[1,2,4]triazolo[1,5-a]pyridin-2-amine] has an EC50 of less than 1000 nM and an Emax greater than 80%.
For `O=S(=O)(c1ccccc1)c1ccc2nnc(NC[C@H](O)c3ccccc3)n2c1` [Example 70], the EC50 was less than 1000 nM and the Emax was greater than 80%.
`CCN(CC)S(=O)(=O)c1ccc2nnc(NCCC(C)C)n2c1` [Example 19] gave an EC50 of less than 1000 nM and an Emax greater than 80%.
With `O=S(=O)(c1ccccc1)c1ccc2nc(NC[C@H](O)c3ccccc3)nn2c1` [Example 83] the EC50 was less than 1000 nM and the Emax was greater than 80%.
In the case of `O=S(=O)(c1ccccc1)c1ccc2nc(NCc3cccc(C(F)(F)F)c3)nn2c1` [Example 82], the EC50 is reported as less than 1000 nM and the Emax is reported as greater than 80%.
In the case of `CCN(CC)S(=O)(=O)c1ccc2nnc(NCc3cccc(C)c3)n2c1` [Example 10], the EC50 is reported as less than 1000 nM and the Emax is reported as greater than 80%.
`CCN(CC)S(=O)(=O)c1ccc2nnc(N[C@H](C)C3CCCCC3)n2c1` [Example 34] showed an EC50 of less than 1000 nM and an Emax greater than 80%.
`CCN(CC)S(=O)(=O)c1ccc2nnc(NC3CCCC3)n2c1` [Example 26] showed an EC50 of less than 1000 nM and an Emax greater than 80%.
With `O=C(CNc1nc2ccc(S(=O)(=O)c3ccccc3)cn2n1)C1CCCCC1` [Example 87] the EC50 was less than 1000 nM and the Emax was greater than 80%.
`CCN(CC)S(=O)(=O)c1ccc2nnc(NCCC(C)(C)C)n2c1` [Example 45] showed an EC50 of less than 1000 nM and an Emax greater than 80%.
Molecule `CCN(CC)S(=O)(=O)c1ccc2nnc(NCc3ccc(F)cc3)n2c1` [Example 49] has an EC50 of less than 1000 nM and an Emax greater than 80%.
With `CC(C)(C)C(=O)OC(CNc1nnc2ccc(S(=O)(=O)c3ccccc3)cn12)C1CCCCC1` (stereo not shown) [Example 74] the EC50 was less than 1000 nM and the Emax was greater than 80%.
Molecule `C[C@@H](Nc1nnc2ccc(S(=O)(=O)c3ccccc3)cn12)c1ccccc1` [Example 62, (R)—N-(1-Phenylethyl)-6-(phenylsulfonyl)-[1,2,4]triazolo[4,3-a]pyridin-3-amine] has an EC50 of less than 1000 nM and an Emax greater than 80%.
`Cc1ccc(CNc2nc3ccc(S(=O)(=O)N4CCCCC4)cn3n2)cc1` [Example 102] was tested, and the EC50 was less than 1000 nM and the Emax was greater than 80%.
Molecule `O=S(=O)(c1ccc2nc(NCc3ccc4c(c3)OCO4)nn2c1)N1CCCCC1` [Example 101, N-(benzo[d][1,3]dioxol-5-ylmethyl)-6-(piperidin-1-ylsulfonyl)-[1,2,4]-triazolo[1,5-a]pyridin-2-amine] has an EC50 of 1000 to 10000 nM and an Emax greater than 80%.
With `O=S(=O)(c1ccccc1)c1ccc2nc(NCC3CC3)nn2c1` [Example 86] the EC50 was less than 1000 nM and the Emax was greater than 80%.
With `O=C(CNc1nnc2ccc(S(=O)(=O)c3ccccc3)cn12)C1CCCCC1` [Example 79] the EC50 was 1000 to 10000 nM and the Emax was greater than 80%.
Work on `CCN(CC)S(=O)(=O)c1ccc2nnc(NC(C)c3ccc(OC)cc3)n2c1` (stereo not shown) [Example 28] yielded an EC50 of less than 1000 nM and an Emax greater than 80%.
Work on `CC(C)N(C(C)C)S(=O)(=O)c1ccc2nnc(N[C@H](C)c3ccccc3)n2c1` [Example 47] yielded an EC50 of less than 1000 nM and an Emax of 40 to 80%.
Work on `CCN(CC)S(=O)(=O)c1ccc2nnc(N[C@H](C)c3ccc(C)cc3)n2c1` [Example 35] yielded an EC50 of less than 1000 nM and an Emax greater than 80%.
For `CCN(CC)S(=O)(=O)c1ccc2nnc(NCc3ccc4c(c3)CCO4)n2c1` [Example 40], the EC50 was less than 1000 nM and the Emax was greater than 80%.
For `CCN(CC)S(=O)(=O)c1ccc2nnc(NCC(C)C)n2c1` [Example 17], the EC50 was less than 1000 nM and the Emax was greater than 80%.
For `CCN(CC)S(=O)(=O)c1ccc2nnc(NCC3CCCO3)n2c1` (stereo not shown) [Example 14], the EC50 was greater than 10000 nM and the Emax was 40 to 80%.
In the case of `CCN(CC)S(=O)(=O)c1ccc2nnc(NCC3CCOCC3)n2c1` [Example 50], the EC50 is reported as less than 1000 nM and the Emax is reported as greater than 80%.
Work on `CCN(CC)S(=O)(=O)c1ccc2nnc(NCc3cccc(C#N)c3)n2c1` [Example 56] yielded an EC50 of less than 1000 nM and an Emax greater than 80%.
`CCN(CC)S(=O)(=O)c1ccc2nnc(NCC3CCCCC3)n2c1` [Example 52] gave an EC50 of 1000 to 10000 nM and an Emax greater than 80%.
`O=C(c1ccc(CNc2nc3ccc(S(=O)(=O)c4ccccc4)cn3n2)cc1)N1CCC1` [Example 91] showed an EC50 of less than 1000 nM and an Emax of 40 to 80%.
Molecule `O=S(=O)(c1ccccc1)c1ccc2nnc(NC[C@H](O)C3CCCCC3)n2c1` [Example 69] has an EC50 of less than 1000 nM and an Emax greater than 80%.
`C[C@@H](Nc1nnc2ccc(S(=O)(=O)c3ccc(Cl)cc3)cn12)c1ccccc1` [Example 72] was tested, and the EC50 was 1000 to 10000 nM and the Emax was greater than 80%.
For `CCN(CC)S(=O)(=O)c1ccc2nnc(NC3CCCc4ccccc43)n2c1` (stereo not shown) [Example 2], the EC50 was less than 1000 nM and the Emax was greater than 80%.
`CCN(CC)S(=O)(=O)c1ccn2c(NCC(C)(C)C)nnc2c1` [Example 60, N,N-Diethyl-3-(neopentylamino)-[1,2,4]triazolo[4,3-a]pyridine-7-sulfonamide] showed an EC50 of less than 1000 nM and an Emax greater than 80%.
`CCN(CC)S(=O)(=O)c1ccc2nnc(NCc3cccnc3)n2c1` [Example 15] showed an EC50 greater than 10000 nM and an Emax of 40 to 80%.
In the case of `CCN(CC)S(=O)(=O)c1ccc2nnc(N3CCN(Cc4ccccc4)CC3)n2c1` [Example 6], the EC50 is reported as 1000 to 10000 nM and the Emax is reported as 40 to 80%.
Molecule `COc1ccc(S(=O)(=O)Nc2ccc3nnc(NCc4ccccc4)n3c2)cc1` [Example 59, N-(3-(Benzylamino)-[1,2,4]triazolo[4,3-a]pyridine-6-yl)-4-methoxybenzenesulfonamide] has an EC50 of less than 1000 nM and an Emax of 40 to 80%.
`CCN(CC)S(=O)(=O)c1ccc2nnc(NCc3ccccc3)n2c1C` [Example 61, 3-(Benzylamino)-N,N-diethyl-5-methyl-[1,2,4]triazolo[4,3-a]pyridine-6-sulfonamide] was tested, and the EC50 was 1000 to 10000 nM and the Emax was 10 to 40%.
`CCN(CC)S(=O)(=O)c1ccc2nnc(NCc3ccc(N(C)C)cc3)n2c1` [Example 37] showed an EC50 of less than 1000 nM and an Emax greater than 80%.
`O=S(=O)(c1ccccc1)c1ccc2nc(NC3Cc4ccccc4C3)nn2c1` [Example 80, N-(2,3-dihydro-1H-inden-2-yl)-6-(phenylsulfonyl)-[1,2,4]triazolo[1,5-a]pyridin-2-amine] showed an EC50 of less than 1000 nM and an Emax greater than 80%.
With `CCN(CC)S(=O)(=O)c1ccc2nnc(NCc3ccc(C)c(C)c3)n2c1` [Example 39] the EC50 was less than 1000 nM and the Emax was greater than 80%.
With `CCN(c1cccnc1)S(=O)(=O)c1ccc2nnc(N[C@H](C)c3ccccc3)n2c1` [Example 58, (R)—N-Ethyl-3-((1-phenylethyl)amino)-N-(pyridin-3-yl)-[1,2,4]triazolo[4,3-a]pyridine-6-sulfonamide] the EC50 was less than 1000 nM and the Emax was 40 to 80%.
Work on `CCN(CC)S(=O)(=O)c1ccc2nnc(NC(C)CC(C)C)n2c1` (stereo not shown) [Example 42] yielded an EC50 of less than 1000 nM and an Emax greater than 80%.
In the case of `CCN(CC)S(=O)(=O)c1ccc2nnc(NC(C)c3ccc(C)cc3)n2c1` (stereo not shown) [Example 27], the EC50 is reported as less than 1000 nM and the Emax is reported as greater than 80%.
`CCN(CC)S(=O)(=O)c1ccc2nnc(NCc3ccccc3)n2c1` [Example 1, 3-(Benzylamino)-N,N-diethyl-[1,2,4]triazolo[4,3-a]pyridine-6-sulfonamide] showed an EC50 of less than 1000 nM and an Emax greater than 80%.
Molecule `CCN(CC)S(=O)(=O)c1ccc2nnc(NCc3ccc(OC(F)(F)F)cc3)n2c1` [Example 55] has an EC50 of less than 1000 nM and an Emax of 10 to 40%.
